Results published in patent publication US20050084492A1, “Assay method to monitor the response of anti-cytokine therapy” (priority 2003, published 2005).

Assays:
A498 cells = experiment: Induction of SAA production in A498 renal carcinoma cells by cytokines, SAA ELISA of culture supernatant; type: cell-based; conditions: human renal tumor A498 cells stimulated overnight with the cytokine(s); SAA in culture supernatant by ELISA (FIG. 2A)
From the text: (§1) A-498, a renal carcinoma cell line was purchased from ATCC (Rockville, Md.). Cells were maintained according to ATCC instructions in log phase of cell growth in DMEM/10% heat-inactivated FBS, 1% L-Gut, 1% NEAA and 1% NaPyr. CNTO 328, an anti-human IL-6 antibody developed at Centocor and disclosed in U.S. patent application Ser. No. 10/280,716, hereby incorporated by reference into the present application, was used at several concentrations in the assay. F 105, human anti-gp 120 IgGl, also developed at Centocor, was used as a negative control antibody. Anti-SAA monoclonal antibody (clone REU-86.2, Research Diagnostics, Inc.) was used for SAA immunostaining.
(§2) A498 cells were cultured for 24 hrs in 96-well flat bottom tissue culture plates at a concentration of 6×10^4 cells/100 ul in DMEM complete media at 37 °C./5% CO2. Cells were washed with PBS then starved for 1 hr in 100 ul of serum free DMEM media at room temp. A combination of IL-6 (100 ng/ml), sIL-6R (200 ng /ml) and IL-1b (1 ng/ml) mixture was incubated with serial dilutions of CNTO 328 or F105 control antibody for 30 minutes at room temperature. 100 ul of the mixture was added to the cells and incubated at 37 °C./5% CO2 overnight.
(§3) The cell culture supernatant was assayed immediately for hSAA production using Biosource human SAA kit (Camrillo, Calif.) following manufacturer's instructions.

IL-6 = IL-6 (Homo sapiens, UniProt P05231); experiment: Inhibition of IL-6/sIL-6R/IL-1β induced SAA production from A498 cell line, SAA ELISA; type: cell-based; conditions: A498 cells; IL-6 (100 ng/ml), sIL-6R (200 ng/ml) and IL-1b (1 ng/ml) pre-incubated with serial dilutions of antibody; dose dependent (FIG. 2A & B)
Sequence of IL-6 (P05231 30-212): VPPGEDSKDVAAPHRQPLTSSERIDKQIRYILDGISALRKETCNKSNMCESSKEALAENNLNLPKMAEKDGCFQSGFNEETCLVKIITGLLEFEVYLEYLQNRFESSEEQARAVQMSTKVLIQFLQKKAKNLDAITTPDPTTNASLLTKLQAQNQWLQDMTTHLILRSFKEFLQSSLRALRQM
From the text: as §1, §2, §3

Substance	SAA produced in culture (A498 cells) [ng/mL]	inhibition of IL-6/sIL-6R/IL-1β induced SAA production (IL-6)
IL-1b: cytokine used to stimulate A498 cells	< 100	–
CNTO 328: an anti-human IL-6 antibody developed at Centocor and disclosed in U.S. patent application Ser. No. 10/280,716	–	completely inhibited
